# Data reported in patent US5973114A, “Isolation and characterization of the growth hormone releasing hormone receptor” (priority 1992, dated 1999).
# “Also recorded” adds a separate entry of the source.
# Key:
# [1] = target: T1, secretin and VIP receptors (Homo sapiens, UniProt P47872); conditions: 10 μM; human pancreas; cited from earlier work
# T1 construct: host or cells: human pancreas
# GHRH receptor (GHRH-R) = assay: 125I-GHRHa binding assay in crude ovine pituitary membrane pellets; conditions: for competition for the 125I-GHRHa binding site: 100 nM competitor; for displacement of photoprobe binding to membrane pellets: both photoprobes
# Protocol: Specific binding is defined as the difference in the binding seen with 20 pM iodinated analog alone and binding of the analog in the presence of 10 nM non-iodinated GHRHa.
# All steps were performed at 4° C. Frozen ovine or bovine anterior pituitaries (ovine: approximately 1 gm/pituitary obtained from Dr. Iain Clarke, Melbourne, Australia; bovine: approximately 2.5 gm/pituitary special handling from Pel-Freez, of Rogers, Ak.) were washed of blood, cleaned of connective tissue and homogenized (using a Dounce homogenizer) in 50 mM HEPES buffer, 100 mM NaCl, 10 mM EDTA, 0.1 μM EGTA, pH 7.4 with 0.5 mM PMSF (phenyl methyl sulfonyl fluoride), 10 μg/ml leupeptin, 10 μg/ml pepstatin A, and 200 U/ml (units/ml) aprotinin. This buffer is used to remove endogenous GTP which might be bound to G proteins and to restore high affinity binding. The homogenate was spun at top speed in a microfuge and the supernatant discarded. The upper (membrane) layer of the pellet was then gently resuspended in binding buffer containing 50 mM Tris buffer, 5 mM EGTA, 5 mM MgCl2, 50 μg/ml alamethicin, 30 μg/ml bacitracin and other protease inhibitors as above.
# 1/50 pituitary equivalent per tube was incubated in binding buffer with approximately 100,000 counts of iodinated probe in a volume of 500 μl at room temperature for 1 hour. The total counts delivered and the percent of counts bound for each tube was determined with 3 to 6 replicates per experimental condition. Saturation binding profiles were analyzed with the computer program Ligand which performs a statistically weighted least squares fit to the exact ligand binding equation in nontransformed coordinates.
# GHRH-R (55 kDa band) = assay: photoaffinity cross-linking of the 55 kDa GHRH-R band, SDS-PAGE autoradiography; assay type: binding, ovine; conditions: 125I-GHRHa-ANB-NOS probe
# Protocol: Photoprobe binding in ovine pituitary membrane pellets was determined by γ-counting and UV induced cross-linking was examined by autoradiagraphy of sodium dodecylsulfate polyacrylamide electrophoresis (SDS-PAGE) gels. ^125 I-GHRHa -ANB-NOS probe bound with an affinity of about one nanomole, nM (compared to about 160 picomole, pM, for GHRHa).
# Photoprobe binding to membranes was evaluated with crude membrane binding assay and then analyzed further by SDS-PAGE electrophoresis to identify the binding sites. Photoprobes were incubated in the dark, photolysed for 10 minutes with a long wave (366 nm) UV lamp, and then the samples were pelleted. The pellets were counted and then extracted by boiling directly in SDS sample buffer (total SDS extracts). Alternatively, the labeled pellets were extracted in a mild detergent solution (5 mM CHAPS) centrifuged, and the chloroform/methanol concentrated supernatants denatured with SDS buffer (CHAPS extracts). These samples were then electrophoresed in SDS gels and autoradiographed.
# T1 sequence (P47872 23-440): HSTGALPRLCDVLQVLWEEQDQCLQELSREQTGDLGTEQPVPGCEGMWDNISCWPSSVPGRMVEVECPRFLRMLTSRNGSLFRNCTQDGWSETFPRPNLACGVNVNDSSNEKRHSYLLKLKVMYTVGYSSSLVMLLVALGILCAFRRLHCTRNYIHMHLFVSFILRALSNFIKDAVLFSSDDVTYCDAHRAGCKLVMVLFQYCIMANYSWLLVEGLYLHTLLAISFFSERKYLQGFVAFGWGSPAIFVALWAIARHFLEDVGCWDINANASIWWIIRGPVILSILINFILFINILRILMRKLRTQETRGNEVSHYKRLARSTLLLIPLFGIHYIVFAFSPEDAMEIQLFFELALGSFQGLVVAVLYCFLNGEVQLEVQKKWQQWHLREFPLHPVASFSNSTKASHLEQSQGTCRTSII
compound,measurement,setting,value
GHRH(1-29)-NH2,inhibition of 125I-secretin binding,[1],20%
pituitary adenylate cyclase activating peptide [PACAP],competition for the 125I-GHRHa binding site,GHRH receptor (GHRH-R),did not compete; also recorded: no competition
"[His^1, Nle^27 ]-GHRH-(1-32)-NH2 [GHRHa]",effect on the 55 kDa cross-linked band,GHRH-R (55 kDa band); 10 nM GHRHa,completely eliminated
same,displacement of photoprobe binding to membrane pellets,GHRH receptor (GHRH-R); 10 nM GHRHa,totally displaced
same,Kd,"GHRH receptor (GHRH-R); crude ovine pituitary membrane pellets, program Ligand, read-out: Kd, saturation binding to a single high affinity site",~0.16 nM
vasoactive intestinal peptide [VIP],effect on the 55 kDa cross-linked band,GHRH-R (55 kDa band); 100 nM VIP,unaffected
same,competition for the 125I-GHRHa binding site,GHRH receptor (GHRH-R),did not compete; also recorded: no competition
same,inhibition of 125I-secretin binding,[1],20%
"O[C@H](CS)[C@H](O)CS (racemic) [DTT, dithiothreitol]",effect on specific binding in the GHRH assay,GHRH receptor (GHRH-R); preincubation with 1 mM DTT,completely eliminated
Nc1nc2c(ncn2[C@@H]2O[C@H](COP(=O)(O)OP(=O)(O)OP(O)(O)=S)[C@@H](O)[C@H]2O)c(=O)[nH]1 [GTPγS],reduction of the 55 kDa cross-linked band,GHRH-R (55 kDa band); 50 μM GTPγS,over 50%
same,displacement of photoprobe binding to membrane pellets,GHRH receptor (GHRH-R); 50 μM GTPγS,partially displaced
